From patent US20100093613A1, “METHODS FOR IDENTIFYING AGENTS AND THEIR USE FOR THE PREVENTION OR STABILIZATION OF FIBROSIS” (priority 2007, published 2010) come the findings set out here.

For one assay, the system named is human primary cells. The experiment in a line: Total score for desired parameter modulation over the BioMAP systems of Table 1. Format: cell-based. The conditions noted are these: penalties not applied. The source says:
(§1) Each screened compound is scored according to its modulation of the selected readout parameters. Compounds receive a positive score (score of 1) or negative score (score of 0) for each readout parameter set forth in Table 2 that is modulated in the desired direction. […] Parameters may be penalized by making the positive score a −1 for parameters where regulation is opposite to the desired direction.
The relative importance of each parameter may be weighted by the screener to select those parameters of greatest interest for a particular application.
Compounds were first selected to inhibit PAI-1 in the HDFT as an indication of TBF-b signaling inhibition without being cytotoxic. […] Blank spots in Table 3 were where parameter was not assayed. Penalties were not applied for this scoring.
BioMAP Systems are designed to model complex human disease biology in a practical in vitro format. This is achieved by stimulating human primary cells (single cell type or defined mixtures of cell types) such that multiple disease-relevant signaling pathways are simultaneously active. The choice of cell types and stimulations is guided by the knowledge of disease biology and mechanisms. Incorporating appropriate cell types and stimulating signaling pathways relevant to disease states allows association of biological activities detected in BioMAP Systems with disease processes. Drug effects are then recorded by measuring biologically meaningful protein readouts that provide coverage of biological space of interest (e.g., inflammation, tissue remodeling) and allow discrimination between different drug classes tested.
(§2) Cell culture. Human umbilical vein endothelial cells (HUVEC) were pooled from multiple donors, cultured according to standard methods, and plated into microtiter plates at passage 4. Cell culture medium for all systems containing HUVEC included hydrocortisone. Coronary artery smooth muscle cells (CASM3C) and umbilical artery smooth muscle cells (HSM3C) were cultured according to standard procedures. Peripheral blood mononuclear cells (PBMC) were prepared from buffy coats from normal human donors according to standard methods. Monocyte-derived macrophages were differentiated in the presence of M-CSF for 7 d according to standard procedures. Human dermal fibroblasts were pooled from 3 donors, cultured according to standard methods, and plated confluent 24 h before stimulation. Cell culture medium for all systems containing fibroblasts and keratinocytes contained low hydrocortisone. Epidermal keratinocytes and bronchial epithelial cells from 3 donors were cultured according to standard procedures and pooled when plated into microtiter plates. For keratinocyte-fibroblast co-cultures, cells were plated simultaneously 24 h before stimulation. For bronchial epithelial cell-fibroblast co-cultures, fibroblasts were plated and cultured 48 before addition of epithelial cells, then cultured another 24 hr before stimulation. Concentrations/amounts of agents added to confluent microtiter plates to build each system: cytokines (IL-1β, 1 ng/ml; TNF-α, 5 ng/ml; IFN-γ, 20 ng/ml; IL-4, 5 ng/ml), activators (SAg, 20 ng/ml; histamine, 10 μM; zymosan, 10 μg/ml; or LPS, 2 ng/ml), growth factors (TGF-β, 5 ng/ml; EGF, bFGF, and PDGF-BB, 10 ng/ml), and PBMC (7.5×10^4 cells/well) or macrophages (3.5×10^4 cells/well).
(§3) Compounds. Compounds were prepared in the solvent directed, added 1 hr before stimulation of the cells, and were present during the 24 hr stimulation period for the measurement of parameters listed in Table 2. For proliferation, compounds added 1 hr before stimulation of the cells with cytokines, and were present during the 48 to 72 hr assay. If prepared in DMSO, the final concentration of solvent was 0.1% or less.
Readout Parameter Measurements. The levels of readout parameters were measured by ELISA.

The subject of assay [1] is Bronchial epithelial cells. The experiment in a line: BioMAP BE4T system (IL-4 + TNF-a), scoring of readout parameters. The class given is cell-based, human. Also noted: key: 1 = modulated in desired direction, 0 = not (−1 = opposite). The conditions noted are these: for PAI-1 score: desired change decrease; for EGFR score: desired no change or increase. The procedure:
In the “BE4T” system, bronchial epithelial cells, usually primary human bronchial epithelial cells, are cultured in the presence of TNF-α and IL-4.
as §1, §2, §3
(§4) Readout Parameter Measurements. The levels of readout parameters were measured by ELISA. Briefly, microtiter plates are treated, blocked, and then incubated with primary antibodies or isotype control antibodies (0.01-0.5 microg/ml) for 1 hr. After washing, plates were incubated with a peroxidase-conjugated anti-mouse IgG secondary antibody or a biotin-conjugated anti-mouse IgG antibody for 1 hr followed by streptavidin-HRP for 30 min. Plates were washed and developed with TMB substrate and the absorbance (OD) was read at 450 nm (subtracting the background absorbance at 650 nm). Quantitation of TNF-alpha or PGE2 in the LPS system was done using a commercially available kit according to the manufacturer's directions. Proliferation of endothelial cells (HUVEC and CAEC), smooth muscle cells (SMC and CASMC), and PBMC (T cells) was quantitated by Alamar Blue reduction or SRB.
(§5) Data analysis. Mean OD values for each parameter were calculated for compounds run in duplicate. The mean value (or single well OD value) for each parameter in a treated sample was then divided by the mean value from an appropriate control to generate a ratio. All ratios were then log10 transformed. 95% significance prediction envelopes (grey shading in Figures) were calculated for historical controls.

Assay [2] deals with Bronchial epithelial cells. Kind of assay: BioMAP BE3C system (IL-1β + TNF-α + IFN-γ), scoring of readout parameters. The class given is cell-based, human. The conditions noted are these: for PAI-1 score: desired change decrease; for EGFR score: desired no change or increase.
From the text: as §1, §2, §3, §4, §5

A further assay deals with Fibroblasts. Kind of assay: BioMAP HDF3CT system (IL-1β + TNF-α + IFN-γ + TGF-β), scoring of readout parameters. Format: cell-based, human.
From the text: as §1, §2, §3, §4, §5

The test system of assay [3] is Peripheral Blood Mononuclear Cells + Umbilical Vein Endothelial Cells. The experiment in a line: BioMAP LPS system (TLR4), scoring of readout parameters. The class given is cell-based, human. Particulars: LPS (by position); desired change decrease.
From the text: as §1, §2, §3, §4, §5

Consider `Cn1cnc([N+](=O)[O-])c1Sc1ncnc2nc[nH]c12` [Azathioprine], for which, in the assay on human primary cells, the “Score (Fraction correctly modulated parameters out of 45-58 total)” value worked out at 0.12. In assay [1], the uPA score worked out at 0, the PAI-1 score is on record as 0 and the EGFR score worked out at 0. In assay [2], the HLA-DR score came out at 0, the MMP-1 score is recorded as 0, the uPA score was found to be 0 and the PAI-1 score turned out to be 0. Moreover, the EGFR score in assay [2] is given as 0. The MMP-1 score with Fibroblasts is on record as 0. Besides, in assay [3], the TF score was found to be 0.
With `CCc1oc2ccccc2c1C(=O)c1cc(Br)c(O)c(Br)c1` [Benzbromarone], the “Score (Fraction correctly modulated parameters out of 45-58 total)” value in the assay on human primary cells is given as 0.36. Further, in assay [1], the uPA score is listed as 1, the PAI-1 score is reported as 0 and the EGFR score is given as 0. Further, in assay [2], the HLA-DR score is 0, the MMP-1 score was 1, the uPA score amounted to 0 and the PAI-1 score is 1. Moreover, the EGFR score in assay [2] worked out at 0. Moreover, the MMP-1 score in the assay with Fibroblasts is 0. Further, the TF score in assay [3] amounted to 0.
`C=C1CC[C@H](O)C/C1=C/C=C1\CCC[C@]2(C)[C@@H]([C@H](C)/C=C/[C@H](C)C(C)C)CC[C@@H]12` [Calciferol]: the “Score (Fraction correctly modulated parameters out of 45-58 total)” value in the assay with human primary cells worked out at 0.29. Moreover, in assay [1], the uPA score came to 1, the PAI-1 score is on record as 0 and the EGFR score came out at 0. In assay [2], the HLA-DR score amounted to 0, the MMP-1 score is 1, the uPA score was 0 and the PAI-1 score is recorded as 0. The EGFR score in assay [2] is recorded as 0. Also, the MMP-1 score in the assay on Fibroblasts is reported as 0. The TF score in assay [3] is given as 0.
Take `COc1cc2c(c(OC)c1OC)-c1ccc(OC)c(=O)cc1[C@@H](NC(C)=O)CC2` [Colchicine]: the “Score (Fraction correctly modulated parameters out of 45-58 total)” value in the assay on human primary cells was found to be 0.17. In addition, in assay [1], the uPA score was determined as 1, the PAI-1 score is 0 and the EGFR score is listed as 0. In assay [2], the HLA-DR score worked out at 0, the MMP-1 score is 0, the uPA score worked out at 0 and the PAI-1 score stood at 0. Also, the EGFR score in assay [2] is 0. Moreover, the MMP-1 score in the assay on Fibroblasts came to 0. Further, the TF score in assay [3] was 0.
As for `O=C(O)c1ccccc1Nc1cccc(C(F)(F)F)c1` [Flufenamic Acid], the “Score (Fraction correctly modulated parameters out of 45-58 total)” value with human primary cells is reported as 0.28. In addition, in assay [1], the uPA score was 0, the PAI-1 score came to 1 and the EGFR score worked out at 0. Besides, in assay [2], the HLA-DR score came out at 0, the MMP-1 score is listed as 0, the uPA score was 0 and the PAI-1 score was 1. In assay [2], the EGFR score was determined as 0. Also, the MMP-1 score in the assay with Fibroblasts is given as 1. Besides, the TF score in assay [3] is 0.
For the compound `Fc1ccc(C(OCCN2CCN(CCCc3ccccc3)CC2)c2ccc(F)cc2)cc1` [GBR 12909], in the assay on human primary cells, the “Score (Fraction correctly modulated parameters out of 45-58 total)” value was 0.29. In assay [1], the uPA score turned out to be 0, the PAI-1 score is 0 and the EGFR score amounted to 0. In addition, in assay [2], the HLA-DR score came out at 0, the MMP-1 score was found to be 1, the uPA score came to 0 and the PAI-1 score is reported as 0. In addition, in assay [2], the EGFR score was 0. In addition, the MMP-1 score with Fibroblasts amounted to 0. Moreover, the TF score in assay [3] is on record as 0.
As to `CCCCN(CCCC)CCC(O)c1cc2c(Cl)cc(Cl)cc2c2cc(C(F)(F)F)ccc12` (stereo not shown) [Halofantrine], in the assay on human primary cells, the “Score (Fraction correctly modulated parameters out of 45-58 total)” value came to 0.27. In addition, in assay [1], the uPA score amounted to 0, the PAI-1 score was found to be 0 and the EGFR score is on record as 0. Moreover, in assay [2], the HLA-DR score stood at 0, the MMP-1 score was found to be 1, the uPA score is listed as 0 and the PAI-1 score is on record as 0. For the same compound, the EGFR score in assay [2] stood at 0. The MMP-1 score in the assay on Fibroblasts is recorded as 0. Further, in assay [3], the TF score was 0.
Regarding `CCN(CC)CCNc1ccc(CO)c2sc3ccccc3c(=O)c12` [Hycanthone], in the assay with human primary cells, the “Score (Fraction correctly modulated parameters out of 45-58 total)” value stood at 0.28. In assay [1], the uPA score amounted to 0, the PAI-1 score was determined as 1 and the EGFR score amounted to 0. Besides, in assay [2], the HLA-DR score is 0, the MMP-1 score is 0, the uPA score worked out at 0 and the PAI-1 score is given as 1. Further, in assay [2], the EGFR score was determined as 0. Besides, in the assay with Fibroblasts, the MMP-1 score worked out at 0. Also, the TF score in assay [3] came to 1.
Consider `O=c1cc(-c2ccc(O)c(O)c2)oc2cc(O)cc(O)c12` [Luteolin], for which, in the assay on human primary cells, the “Score (Fraction correctly modulated parameters out of 45-58 total)” value came out at 0.36. In assay [1], the uPA score was determined as 0, the PAI-1 score turned out to be 0 and the EGFR score was found to be 0. Besides, in assay [2], the HLA-DR score is given as 0, the MMP-1 score is given as 0, the uPA score turned out to be 0 and the PAI-1 score was found to be 0. Further, the EGFR score in assay [2] turned out to be 0. The MMP-1 score in the assay on Fibroblasts is listed as 0. Moreover, the TF score in assay [3] turned out to be 1.
`COC(=O)Nc1nc2ccc(SC(C)C)cc2[nH]1` [Methiazole]: the “Score (Fraction correctly modulated parameters out of 45-58 total)” value in the assay with human primary cells came to 0.55. For the same compound, in assay [1], the uPA score was 0, the PAI-1 score amounted to 1 and the EGFR score was 0. In addition, in assay [2], the HLA-DR score is reported as 0, the MMP-1 score is 0, the uPA score is reported as 0 and the PAI-1 score turned out to be 1. The EGFR score in assay [2] came to 0. Moreover, the MMP-1 score in the assay on Fibroblasts is 0. For the same compound, the TF score in assay [3] is reported as 1.
Consider `C[C@]12C=CC(=O)C=C1CC[C@@H]1[C@@H]2[C@@H](O)C[C@@]2(C)[C@H]1CC[C@]2(O)C(=O)CO` [Prednisolone], for which, in the assay on human primary cells, the “Score (Fraction correctly modulated parameters out of 45-58 total)” value turned out to be 0.17. For the same compound, in assay [1], the uPA score is on record as 0, the PAI-1 score was 0 and the EGFR score stood at 0. Further, in assay [2], the HLA-DR score turned out to be 0, the MMP-1 score was 0, the uPA score was found to be 0 and the PAI-1 score was determined as 0. In addition, the EGFR score in assay [2] is on record as 0. Also, the MMP-1 score in the assay with Fibroblasts came out at 0. Besides, the TF score in assay [3] is listed as 0.
